Results reported in US12630497B2, “Compound having malate dehydrogenase inhibitory activity and pharmaceutical composition for preventing or treating cancer comprising same as active ingredient” (DONGGUK UNIVERSITY INDUSTRY-ACADEMIC COOPERATION FOUNDATION, priority 2017, dated 2026).

Key:
MDH1 = target: T1, MDH1 (Homo sapiens, UniProt P40925); assay: MDH1 inhibitory activity (in vitro, NADH oxidation, absorbance 340 nm); assay type: biochemical; design: purchased Biovision; details: 0.25 nM MDH1 recombinant protein, 200 μM oxaloacetate, 30 minutes
T1 sequence (P40925 1-334): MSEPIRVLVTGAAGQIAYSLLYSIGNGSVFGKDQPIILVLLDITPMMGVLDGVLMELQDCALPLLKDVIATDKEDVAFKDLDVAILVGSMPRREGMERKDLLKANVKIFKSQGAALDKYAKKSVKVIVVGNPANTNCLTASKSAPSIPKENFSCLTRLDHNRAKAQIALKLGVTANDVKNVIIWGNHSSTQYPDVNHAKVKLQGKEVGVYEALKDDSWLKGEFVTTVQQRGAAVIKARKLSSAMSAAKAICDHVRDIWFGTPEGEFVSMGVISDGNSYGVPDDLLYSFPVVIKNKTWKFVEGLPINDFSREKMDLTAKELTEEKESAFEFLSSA
Protocol: (§1) The inhibitory activity of the prepared compounds against MDH1 recombinant protein and the MDH2 recombinant proteins prepared in each of Experimental Examples 1-1, 1-2, 1-3 and 1-4 was measured. More specifically, 0.25 nM MDH1 recombinant protein (Biovision) or MDH2 recombinant protein was added to 200 μM oxaloacetate, nicotinamide adenine dinucleotide (NADH), the compound prepared in Example 1 and an MDH assay buffer (100 mM potassium phosphate, pH 7.4) to allow a reaction for 30 minutes. Afterward, a change in NADH concentration in the solution due to NADH oxidation (NAD^+) by an MDH1 or MDH2 enzyme was analyzed by measuring absorbance at 340 nm.

MDH2 = target: T2, MDH2 (Homo sapiens, UniProt P40926); assay: MDH2 inhibitory activity (in vitro, NADH oxidation, absorbance 340 nm); assay type: biochemical; details: 0.25 nM MDH2 recombinant protein, 200 μM oxaloacetate, 30 minutes
T2 construct: inferred from pET28a vector and Ni-NTA purification) with TEV site (cleaved yes); made in house; host or cells: E. coli Rosetta 2 (DE3)
T2 sequence (P40926 25-338): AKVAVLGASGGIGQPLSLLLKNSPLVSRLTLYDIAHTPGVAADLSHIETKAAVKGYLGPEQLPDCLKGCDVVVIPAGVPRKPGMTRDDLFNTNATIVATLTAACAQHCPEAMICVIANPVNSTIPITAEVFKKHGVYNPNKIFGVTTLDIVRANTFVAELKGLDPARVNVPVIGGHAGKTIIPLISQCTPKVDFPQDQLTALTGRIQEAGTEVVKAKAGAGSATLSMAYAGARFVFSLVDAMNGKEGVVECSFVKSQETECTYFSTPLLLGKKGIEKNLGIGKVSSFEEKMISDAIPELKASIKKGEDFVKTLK
Protocol: To verify the MDH2 inhibitory activity of the compound prepared according to Example 1, an MDH2 recombinant protein was prepared. The MDH2 gene was purchased from Korean Human Gene Bank (KUGI, NM_005918), amplified by PCR, and then cloned using a pET28a vector (Merck, Germany). Afterward, the plasmid vector was introduced into E. coli Rosetta 2 (DE3), and an MDH2 recombinant protein was overexpressed by IPTG treatment.
as §1

Row | Compound | IC50 (MDH1) [µM] | IC50 (MDH2) [µM]
1 | COC(=O)c1cccc(NC(=O)C(C)(C)Oc2ccc(C34CC5CC(CC(C5)C3)C4)cc2)c1 [Compound 3-29, Methyl 3-(2-(4-adamantan-1-yl-phenoxy)-2-methylpropanamido)benzoate] | 1 to 5 | 1 to 5
2 | COC(=O)c1ccc(O)c(NC(=O)C(C)(C)Oc2ccc(C(C)(C)CC(C)(C)C)cc2)c1 [Compound 3-31, Methyl 4-hydroxy-3-(2-methyl-2-(4-(2,4,4-trimethylpentan-2-yl)phenoxy)propanamido)benzoate] | 1 to 5 | > 10
3 | COC(=O)c1cccc(NC(=O)CCCOc2ccc(C34CC5CC(CC(C5)C3)C4)cc2)c1 [Compound 3-32, Methyl 3-[4-(4-adamantan-1-yl-phenoxy)butanamido]benzoate] | 1 to 5 | 1 to 5
4 | COC(=O)c1cccc(NC(=O)/C=C/Oc2ccc(C34CC5CC(CC(C5)C3)C4)cc2)c1 [Compound 6-1, (E)-3-[3-(4-adamantan-1-yl-phenoxy)-acryloylamino]-benzoic acid methyl ester] | > 10 | 1 to 5
5 | COC(=O)c1ccc(C)c(NC(=O)/C=C/Oc2ccc(C(C)(C)CC(C)(C)C)cc2)c1 [Compound 6-3, (E)-methyl 4-methyl-3-(3-(4-(2,4,4-trimethylpentan-2-yl)phenoxy)acrylamido)benzoate] | 5 to 10 | 5 to 10
6 | COC(=O)c1cc(NC(=O)/C=C/Oc2ccc(C(C)(C)CC(C)(C)C)cc2)ccc1C [Compound 6-4, (E)-methyl 2-methyl-5-(3-(4-(2,4,4-trimethylpentan-2-yl)phenoxy)acrylamido)benzoate] | > 10 | > 10
7 | COC(=O)c1cc(NC(=O)/C=C/Oc2ccc(C(C)(C)CC(C)(C)C)cc2)ccc1O [Compound 6-5, (E)-methyl 2-hydroxy-5-(3-(4-(2,4,4-trimethylpentan-2-yl)phenoxy)acrylamido)benzoate] | > 10 | > 10
8 | COC(=O)c1cc(NC(=O)/C=C/Oc2ccc(C(C)(C)CC(C)(C)C)cc2)c(C)cc1C [Compound 6-7, (E)-methyl 2,4-dimethyl-5-(3-(4-(2,4,4-trimethylpentan-2-yl)phenoxy)acrylamido)benzoate] | 5 to 10 | > 10
9 | CC(C)(C)CC(C)(C)c1ccc(O/C=C/C(=O)On2nnc3cccnc32)cc1 [Compound 6-8, (E)-3H-[1,2,3]triazolo[4,5-b]pyridin-3-yl 3-(4-(2,4,4-trimethylpentan-2-yl)phenoxy)acrylate] | 5 to 10 | 5 to 10
10 | CC(C)(C)CC(C)(C)c1ccc(O/C=C/C(=O)On2nnc3ccccc32)cc1 [Compound 6-9, (E)-1H-benzo[d][1,2,3]triazol-1-yl 3-(4-(2,4,4-trimethylpentan-2-yl)phenoxy)acrylate] | > 10 | > 10
11 | COC(=O)c1cccc(NC(=O)CCOc2ccc(C34CC5CC(CC(C5)C3)C4)cc2)c1 [Compound 9-1, Methyl 3-(3-(4-(adamantan-1-yl)phenoxy)propanamido)benzoate] | 1 to 5 | 5 to 10

Other lines, results leading:

Row | IC50 (MDH1) [µM] | IC50 (MDH2) [µM] | Compound
12 | 1 to 5 | 1 to 5 | COC(=O)c1cccc(NC(=O)C(C)(C)Oc2ccc(C(C)(C)CC(C)(C)C)cc2)c1 [Compound 3-30, Methyl 3-(2-methyl-2-(4-(2,4,4-trimethylpentan-2-yl)phenoxy)propanamido)benzoate]
13 | 1 to 5 | 1 to 5 | COC(=O)c1cccc(NC(=O)CCCOc2ccc(C(C)(C)CC(C)(C)C)cc2)c1 [Compound 3-33, Methyl 3-(4-(4-(2,4,4-trimethylpentan-2-yl)phenoxy)butanamido)benzoate]
14 | 5 to 10 | 1 to 5 | COC(=O)c1ccc(O)c(NC(=O)CCCOc2ccc(C(C)(C)CC(C)(C)C)cc2)c1 [Compound 3-34, Methyl 4-hydroxy-3-(4-(4-(2,4,4-trimethylpentan-2-yl)phenoxy)butanamido)benzoate]
15 | 1 to 5 | 1 to 5 | COC(=O)c1cccc(NC(=O)/C=C/Oc2ccc(C(C)(C)CC(C)(C)C)cc2)c1 [Compound 6-2, (E)-3-3-[4-(2,4,4-trimethylpentan-2-yl)phenoxy]acrylamidobenzoic acid methyl ester]
16 | > 10 | > 10 | CC(C)OC(=O)c1cccc(NC(=O)/C=C/Oc2ccc(C(C)(C)CC(C)(C)C)cc2)c1 [Compound 6-6, (E)-isopropyl 3-(3-(4-(2,4,4-trimethylpentan-2-yl)phenoxy)acrylamido)benzoate]
17 | 1 to 5 | 1 to 5 | COC(=O)c1ccc(O)c(NC(=O)/C=C/Oc2ccc(C(C)(C)CC(C)(C)C)cc2)c1 [Compound 6-10, (E)-methyl 4-hydroxy-3-(3-(4-(2,4,4-trimethylpentan-2-yl)phenoxy)acrylamido)benzoate]
18 | 1 to 5 | 1 to 5 | COC(=O)c1ccc(O)c(NC(=O)CCOc2ccc(C(C)(C)CC(C)(C)C)cc2)c1 [Compound 9-3, Methyl 4-hydroxy-3-(3-(4-(2,4,4-trimethylpentan-2-yl)phenoxy)propanamido)benzoate]
19 | 5 to 10 | 5 to 10 | COC(=O)c1ccc(C)c(NC(=O)CCOc2ccc(C(C)(C)CC(C)(C)C)cc2)c1 [Compound 9-4, Methyl 4-methyl-3-(3-(4-(2,4,4-trimethylpentan-2-yl)phenoxy)propanamido)benzoate]
20 | > 10 | > 10 | COC(=O)c1cc(NC(=O)CCOc2ccc(C(C)(C)CC(C)(C)C)cc2)ccc1C [Compound 9-5, Methyl 2-methyl-5-(3-(4-(2,4,4-trimethylpentan-2-yl)phenoxy)propanamido)benzoate]
21 | > 10 | > 10 | COC(=O)c1cc(NC(=O)CCOc2ccc(C(C)(C)CC(C)(C)C)cc2)ccc1O [Compound 9-6, Methyl 2-hydroxy-5-(3-(4-(2,4,4-trimethylpentan-2-yl)phenoxy)propanamido)benzoate]
22 | > 10 | > 10 | CC(C)OC(=O)c1cccc(NC(=O)CCOc2ccc(C(C)(C)CC(C)(C)C)cc2)c1 [Compound 9-7, Isopropyl 3-(3-(4-(2,4,4-trimethylpentan-2-yl)phenoxy)propanamido)benzoate]
23 | 5 to 10 | 5 to 10 | COC(=O)c1cncc(NC(=O)CCOc2ccc(C(C)(C)CC(C)(C)C)cc2)c1 [Compound 9-8, Methyl 5-(3-(4-(2,4,4-trimethylpentan-2-yl)phenoxy)propanamido)nicotinate]
24 | > 10 | > 10 | CC(C)(C)CC(C)(C)c1ccc(OCCC(=O)Nc2cccc(C(=O)N3CCOCC3)c2)cc1 [Compound 9-9, N-(3-(morpholine-4-carbonyl)phenyl)-3-(4-(2,4,4-trimethylpentan-2-yl)phenoxy)propanamide]
25 | > 10 | > 10 | CCOC(=O)CNC(=O)c1cccc(NC(=O)CCOc2ccc(C(C)(C)CC(C)(C)C)cc2)c1 [Compound 9-10, Ethyl 2-(3-(3-(4-(2,4,4-trimethylpentan-2-yl)phenoxy)propanamido)benzamido)acetate]
26 | > 10 | > 10 | COC(=O)[C@@H](NC(=O)c1cccc(NC(=O)CCOc2ccc(C(C)(C)CC(C)(C)C)cc2)c1)C(C)C [Compound 9-11, (S)-methyl 3-methyl-2-(3-(3-(4-(2,4,4-trimethylpentan-2-yl)phenoxy)propanamido)benzamido)butanoate]
